Where two headings read alike, the source gives them in different places. Where a SMILES comes first, the peptide text is derived from it. The star is where a group is joined. Cbz = O=C(OCc1ccccc1)*; CHN2 = [N-]=[N+]=C*; tBu = CC(C)(C)*

Assay [1] relates to influenza virus. Format: cell-based. Particulars: for influenza virus entry, cathepsin inhibitor treatment: anti-influenza nucleoprotein mAb H19.
The test system of assay [2] is FIPV-1146. Put plainly: Infection of primary feline blood monocytes by immunofluorescence. The assay is classed as cell-based, Feline infectious peritonitis virus. The following applies: monocytes pretreated with 10 μM inhibitor; 12 h post-infection.
The test system of assay [3] is serotype I FIPV black strain. Nature of the assay: Infection of AK-D cells by a serotype I FCoV, immunofluorescence. Particulars: AK-D cells pretreated with 10 uM inhibitor. Format: cell-based, Feline infectious peritonitis virus. As for the experimental part:
AK-D cells were pretreated with either 10 uM cathepsin B inhibitor CA074-Me (CatB-I), 10 uM cathepsin L inhibitor Z-FY(tBu)-DMK (CatL-I), or 10 mM NH4Cl, and then infected with virus the serotype I FIPV black strain. Immunofluorescence was performed essentially as described for FIG. 4.
AK-D cells were pretreated with either 10 uM cathepsin B inhibitor CA074-Me (CatB-I), 10 uM cathepsin L inhibitor Z-FY(tBu)-DMK (CatL-I), or 10 mM NH4Cl, and then infected with virus FIPV black strain, a serotype I FIPV. Immunofluorescence was performed essentially as described for FIG. 4.

Assay [4] has as its target T1, cathepsin B (Mus musculus, UniProt P10605).
T1 construct: host or cells: mouse (in vivo)
Particulars: 10 mg/kg; cited from earlier work.

For assay [5], the system named is FECV-1683. Put plainly: Infection (entry) assay by immunofluorescence, A-72 cells. The assay is classed as cell-based, feline enteric coronavirus. Particulars: for infection by FECV-1683 (entry), inhibitor pre-incubation: five log dilutions of inhibitor 60 min pre-infection; for infection by FECV-1683 (entry), inhibitor pre-incubation / infection by FECV-1683, inhibitor treatment after entry: fixed 6 h post-infection; for infection by FECV-1683, inhibitor treatment after entry: inhibitor 60 min post-infection.

For assay [6], the system named is FECV-1683. Nature of the assay: Infection of feline cell lines CRFK, AK-D, Fc2Lu by immunofluorescence. The following applies: Fc2Lu cells, pretreated with 10 uM inhibitor or 10 mM NH4Cl, 6 h post-infection. Format: cell-based, feline enteric coronavirus.
The test system of assay [7] is FIPV-DF2. Put plainly: Infection of primary feline blood monocytes by immunofluorescence. Format: cell-based, Feline infectious peritonitis virus. The following applies: monocytes pretreated with 10 μM inhibitor; 12 h post-infection.
Assay [8] concerns FIPV-1146. Nature of the assay: Infection of feline cell lines CRFK, AK-D, Fc2Lu by immunofluorescence. The assay is classed as cell-based, Feline infectious peritonitis virus.
The subject of assay [9] is FIPV-1146. Nature of the assay: Growth assay: production of extracellular virus by TCID50, A-72 cells. The assay is classed as cell-based, Feline infectious peritonitis virus. Particulars: A-72 cells pretreated with 10 μM inhibitor; media collected 9 h post-infection; vs DMSO control.
Assay [10] concerns the target cathepsin L (Homo sapiens, UniProt P07711). The following applies: kinact/Ki (k2/Ki); cited from earlier work.
Assay [11] deals with FECV-1683. Put plainly: Growth assay: production of extracellular virus by TCID50, A-72 cells. Format: cell-based, feline enteric coronavirus. The following applies: A-72 cells pretreated with 10 μM inhibitor; media collected 9 h post-infection; vs DMSO control.
For assay [12], the system named is FIPV-DF2. Put plainly: Infection of feline cell lines CRFK, AK-D, Fc2Lu by immunofluorescence. The assay is classed as cell-based, Feline infectious peritonitis virus.
For assay [13], the target named is cathepsin B (Homo sapiens, UniProt P07858). The following applies: kinact/Ki (k2/Ki); cited from earlier work.
The test system of assay [14] is FIPV-1146. Format: cell-based, Feline infectious peritonitis virus. Particulars: for infection by FIPV-1146 (entry), inhibitor pre-incubation: five log dilutions of inhibitor 60 min pre-infection.
Assay [15] relates to influenza virus. Format: cell-based. The following applies: A-72 cells pretreated with inhibitor; control virus.
The test system of assay [16] is Sendai virus. The assay is classed as cell-based.
Assay [17] relates to murine coronavirus (A59). The following applies: cited from earlier work.
For assay [18], the system named is human coronaviruses. The following applies: cited from earlier work.
In assay [19] the test system is FIPV. The following applies: cited from earlier work.
[20] abbreviates: CRFK, AK-D, Fc2Lu cells, pretreated with 10 uM inhibitor or 10 mM NH4Cl, 6 h post-infection.
Where [21] appears, read: A-72 cells, fixed 6 h post-infection.
The mark [22] stands for this setting: A-72 cells, post-treatment at the concentrations shown in FIG. 3.
Where [23] appears, read: A-72 cells, pretreatment with 50 nM bafilomycin A1.
Where [24] appears, read: A-72 cells, 1 h post-infection, concentrations shown in FIG. 3.

T1 sequence (P10605 80-333): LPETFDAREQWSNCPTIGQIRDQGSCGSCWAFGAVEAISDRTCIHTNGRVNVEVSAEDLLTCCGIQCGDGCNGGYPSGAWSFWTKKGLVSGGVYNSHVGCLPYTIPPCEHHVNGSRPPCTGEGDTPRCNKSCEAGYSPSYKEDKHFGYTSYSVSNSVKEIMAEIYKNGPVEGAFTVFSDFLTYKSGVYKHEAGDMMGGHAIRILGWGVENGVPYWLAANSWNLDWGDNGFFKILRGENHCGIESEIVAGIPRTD
cathepsin L, sequence (P07711 114-333, species assumed): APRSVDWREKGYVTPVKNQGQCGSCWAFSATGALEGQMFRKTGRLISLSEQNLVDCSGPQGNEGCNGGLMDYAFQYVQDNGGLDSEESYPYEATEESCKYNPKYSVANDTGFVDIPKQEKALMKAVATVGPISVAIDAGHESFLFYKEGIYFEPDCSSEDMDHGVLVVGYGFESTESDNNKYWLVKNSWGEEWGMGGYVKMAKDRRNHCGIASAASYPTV

As to `CCCNC(=O)[C@H]1O[C@@H]1C(=O)N[C@H](C(=O)N1CCC[C@H]1C(=O)OC)[C@@H](C)CC` (relative stereo) [CA074-Me, [L-3-trans-(Propylcarbamoyl)oxirane-2-carbonyl]-L-isoleucyl-L-proline Methyl Ester], the “influenza virus entry, cathepsin inhibitor treatment” value in assay [1] (A-72 cells, […]) was “Neither the cathepsin B nor the cathepsin L inhibitor had an effect”. In [2], the “inhibition of infection by FIPV-1146 of primary feline blood monocytes” value is listed as 85-95%. In addition, the “replication of the serotype I FIPV strain” value in assay [3] is given as “can inhibit replication”. For the same molecule, the “inhibition of cathepsin B in a mouse” value in [4] is “inhibit cathepsin B”. In [5] (A-72 cells), the “infection by FECV-1683 (entry), inhibitor pre-incubation” value is “potently blocked infection” and the “infection by FECV-1683, inhibitor treatment after entry” value is reported as “no effect”. Moreover, the “infection by FECV-1683 of feline cell lines” value in assay [6] is on record as “almost completely prevented infection”. The “inhibition of infection by FIPV-DF2 of primary feline blood monocytes” value in assay [7] is recorded as 85-95%. Also, the “infection by FIPV-1146 of feline cell lines” value in assay [8] (setting [20]) is “almost completely prevented infection”. In addition, in assay [9], the “production of FIPV-1146 viral particles (extracellular virus, TCID50)” value (from here on “production of FIPV-1146 viral particles”) was “considerably limited the production”. For the same molecule, in [10], the “apparent second order rate constant for cathepsin L” value was 85 M⁻¹ s⁻¹. In assay [11], the “production of FECV-1683 viral particles (extracellular virus, TCID50)” value (“production of FECV-1683 viral particles” for short) is “considerably limited the production”. The “infection by FIPV-DF2 of feline cell lines” value in [12] (setting [20]) is “almost completely prevented infection”. The “apparent second order rate constant for cathepsin B” value in assay [13] was 201 M⁻¹ s⁻¹. The “infection by FIPV-1146 (entry), inhibitor pre-incubation” value in assay [14] (setting [21]) is “almost completely blocked infection”. Besides, the “infection by FIPV-1146, inhibitor treatment after entry” value in assay [14] (A-72 cells, inhibitor 60 min post-infection, fixed 6 h post-infection) is given as “no effect”.

Regarding `CC(C)C[C@H](NC(=O)OCc1ccccc1)C(=O)NNC(=O)NNC(=O)[C@H](CC(C)C)NC(=O)[C@H](Cc1ccccc1)NC(=O)OC(C)(C)C` [Boc1, 1-(N-Benzyloxycarbonyl-leucyl)-5-(N-Boc-phenylalanyl-leucyl)carbohydrazide], in assay [1] (setting [21]), the “influenza virus entry, cathepsin inhibitor treatment” value was “no effect”. In assay [5] (A-72 cells), the “infection by FECV-1683 (entry), inhibitor pre-incubation” value is given as “no effect”. For the same molecule, in assay [9], the “production of FIPV-1146 viral particles” value is given as “no significant effect”. The “production of FECV-1683 viral particles” value in assay [11] was “no significant effect”. For the same molecule, in assay [14] (setting [21]), the “infection by FIPV-1146 (entry), inhibitor pre-incubation” value is given as “no effect”.

For `CCOC(=O)[C@H]1O[C@@H]1C(=O)N[C@@H](CC(C)C)C(=O)NCCC(C)C` [E-64d, (2S,3S)-trans-Epoxysuccinyl-L-leucylamido-3-methylbutane ethyl ester], the “effect on influenza virus infection” value in assay [15] was “no effect”. The “production of FIPV-1146 viral particles” value in [9] was “significantly reduced”. In addition, in [11], the “production of FECV-1683 viral particles” value is listed as “significantly reduced”.

`Cl.N` [NH4Cl]: in [1], the influenza virus entry result is “completely inhibited”. Besides, in [5], the “FECV-1683 infection, lysosomotropic agent treatment after entry” value is “minimal effect”; the “FECV-1683 infectivity, treatment after entry at higher concentrations” value is listed as “significantly reduce infectivity”; the “entry by FECV-1683” value is given as “almost completely blocked entry”. In [6], the “infection by FECV-1683 of feline cell lines” value is on record as “selectively inhibited”. Further, in [8], the “infection by FIPV-1146 of feline cell lines” value was “only a marginal effect”. In addition, the Sendai virus entry entry in assay [16] is given as “no reduction in entry”. In addition, in assay [12], the “infection by FIPV-DF2 of feline cell lines” value is reported as “only a marginal effect”. Moreover, in assay [14], the FIPV-1146 entry result is “only partially blocked”; the “FIPV-1146 infection, lysosomotropic agent treatment after entry” value is on record as “minimal effect”; the “FIPV-1146 infectivity, treatment after entry at higher concentrations” value is recorded as “significantly reduce infectivity”; the “inhibition of entry of FIPV-1146” value is “approximately 20%”.

Consider `CC(C)(C)Oc1ccc(C[C@H](NC(=O)[C@H](Cc2ccccc2)NC(=O)OCc2ccccc2)C(=O)C=[N+]=[N-])cc1` [Z-FY-(tBu)-DMK, Z-Phe-Tyr(t-Bu)-diazomethylketone] (Cbz-Phe-Tyr(tBu)-CHN2), for which the “influenza virus entry, cathepsin inhibitor treatment” value in [1] (A-72 cells, […]) is “Neither the cathepsin B nor the cathepsin L inhibitor had an effect”. Besides, the “effect on FIPV-1146 infection of primary feline monocytes (in words)” value in [2] is given as “no significant effect”. In [5] (A-72 cells), the “infection by FECV-1683 (entry), inhibitor pre-incubation” value is “potently blocked infection” and the “infection by FECV-1683, inhibitor treatment after entry” value is “no effect”. Further, in [6], the “infection by FECV-1683 of feline cell lines” value is “selectively inhibited”. In addition, the “effect on FIPV-DF2 infection of primary feline monocytes (in words)” value in assay [7] was “no significant effect”. In addition, in assay [8] (setting [20]), the “infection by FIPV-1146 of feline cell lines” value is listed as “little or no effect”. Further, in [9], the “production of FIPV-1146 viral particles” value is listed as “only a negligible effect”. Further, in [11], the “production of FECV-1683 viral particles” value is listed as “greatly diminished the propagation”. In assay [12] (setting [20]), the “infection by FIPV-DF2 of feline cell lines” value is “little or no effect”. Moreover, the “infection by FIPV-1146 (entry), inhibitor pre-incubation” value in [14] (setting [21]) is listed as “no effect on FIPV-1146 entry, except for some limited effect at the highest concentration tested”.

As for `CO/C1=C\C(C)=C\[C@@H](C)[C@@H](O)[C@@H](C)C/C(C)=C/C=C/[C@H](OC)[C@@H]([C@@H](C)[C@@H](O)[C@H](C)[C@@]2(O)C[C@@H](O)[C@H](C)[C@@H](C(C)C)O2)OC1=O` [bafilomycin A1], the “influenza virus infection, post-treatment” value in assay [1] (setting [22]) is given as “no effect”. For the same molecule, the “entry of influenza virus” value in assay [1] (setting [23]) was “completely blocked entry”. Moreover, the “FECV-1683 infectivity, treatment after entry at higher concentrations” value in assay [5] was “significantly reduce infectivity”. Also, the “FECV-1683 infection, lysosomotropic agent treatment after entry” value in assay [5] (setting [24]) is “minimal effect”. In addition, in assay [5] (setting [23]), the “entry of FECV-1683” value is reported as “completely blocked entry”. For the same molecule, the Sendai virus entry result in [16] (A-72 cells, bafilomycin A1 at the concentrations tested) is recorded as “unaffected”. Also, in [16] (setting [22]), the “Sendai virus infection, post-treatment” value is recorded as “no effect”. Besides, the “FIPV-1146 infectivity, treatment after entry at higher concentrations” value in assay [14] is “significantly reduce infectivity”. Also, the “FIPV-1146 infection, lysosomotropic agent treatment after entry” value in assay [14] (setting [24]) is listed as “minimal effect”. Moreover, the “inhibition of entry by FIPV-1146” value in assay [14] (setting [23]) is “approximately 40%”.

Consider `CC(=O)N[C@@H](CC(C)C)C(=O)N[C@@H](CC(C)C)C(=O)N[C@H](C=O)CCCNC(=N)N` [leupeptin], for which the “replication of murine coronavirus A59” value in assay [17] is recorded as “does not strongly inhibit”. In assay [18], the “replication of human coronavirus” value is on record as “inhibits”. Moreover, the “inhibition of FIPV” value in assay [19] is on record as “does not strongly inhibit”.

B1: cystatin C: a potent inhibitor of cathepsin B (protein, UniProt P01034 27-146, looked up)
Cystatin-C: SSPGKPPRLVGGPMDASVEEEGVRRALDFAVGEYNKASNDMYHSRALQVVRARKQIVAGVNYFLDVELGRTTCTKTQPNLDNCPFHDQPHLKRKAFCSFQIYAVPWQGTMTLSKSTCQDA
Regarding B1, in assay [17], the “replication of murine coronavirus A59” value is listed as “lack of inhibition”. For the same molecule, the “replication of human coronavirus” value in [18] was “inhibited replication”.

The values are drawn from US9044486B2, “Method for prophylaxis or treatment of feline infectious peritonitis” (Cornell University, priority 2008, dated 2015).
